US7615361B2, “Toxicity screening methods” (Ceetox, Inc., priority 2006, dated 2009)

Tests used:
BNP = experiment: bDNA analysis of mRNA in rat cardiomyocytes; assay type: cell-based; details: rat cardiomyocytes, 1, 3, 6 and 24 hours
Source text: (§1) Hypertrophy of the heart ventricular myocytes is regulated by a complex series of intracellular signaling processes involving angiotensin receptors and a series of down stream gene expression changes (Li et al. 2006). Endothelin-1 (ET-1) induces hypertrophy of cardiomyocytes in vivo and in vitro. The mechanism of ET-1-induced hypertrophy consists in the activation of phospholipase C, protein kinase C, extra cellular signal regulated kinase (ERK) and upregulation of cfos and cjun.
(§2) Expression of ANP and BNP mRNA levels was determined by bDNA analysis of mRNA. ET-1 at 0.1 μM was included as a positive control.
(§3) […] Plates were mixed using a DPC 5 Micromix plate shaker at 37° C. for 15-30 minutes to ensure complete lysis of cells. Cell lysis was confirmed using a Nikon inverted microscope. Plates were stored at −80° C. until further analysis.
(§4) bDNA Analysis (Day 1): All solutions were prepared fresh on the day of analysis. Quantigene® bDNA kit components were brought to room temperature prior to use. Chemicals not supplied by Genospectra were obtained from Sigma-Aldrich.
(§5) On the day of analysis, Target Probe Sets were prepared for probe gene sets by adding 25 μL of each probe set component (CE, LE, BL) to 425 μL stock lysis solution using the following probe set concentrations: CE (50 fmol/μL), LE (200 fmol/μL), BL (100 fmol/μL).
(§6) Cell lysis plates were removed from freezer storage and thawed. […] Next, 10 μL of the appropriate Target Probe Set (PS2) was added to each appropriate well of the Capture Plate. Plates were tightly sealed using a plate sealer and incubated at 53° C. for 16-20 hr (overnight).
(§7) bDNA Analysis (Day 2): Wash buffer was prepared in ultra-pure water using 0.1×Saline-Sodium Citrate (SSC) and 0.03% Lithium Lauryl Sulfate (LLS). Amplifier working solution was prepared by adding 10 μL Amplifier to 10 mL Amplifier Diluent per plate.
(§8) Plates were removed from incubator and washed three times with 300 μL wash buffer. Wash buffer was completely removed from plates by aspiration and 100 μL Amplifier working solution was added to each well. Plates were sealed and incubated at 46° C. for 1 hr.
(§9) Label Probe working solution was prepared by adding 10 μL Label Probe to 10 mL Label Probe Diluent per plate. […] Plates were sealed and incubated at 46° C. for 1 hr.

ANP = experiment: bDNA analysis of mRNA in rat cardiomyocytes; assay type: cell-based; details: rat cardiomyocytes, 1, 3, 6 and 24 hours
Source text: as §1, §2, §3, §4, §5, §6, §7, §8, §9

H4IIE cells = experiment: MemTox membrane leakage (AK / α-GST); assay type: cell-based, rat; details: rat, 24 h
Method in brief: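 H4IIE rat hepatoma cells were exposed to compound diluted in complete culture medium. Leakage of adenylate kinase (luminescence) and/or α-GST (ELISA, 450/650 nm) was measured in the medium collected at the end of exposure. Percent live cells was computed relative to 1 mM digitonin-treated maximum release, as means of n=3-7.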

HUVEC = experiment: Caspase 3 activity (apoptosis); assay type: cell-based, human; details: 24 HR
Description: (§10) Caspase 3 Procedure: Caspase 3 activity was determined using a caspase substrate (DEVD, Asp-Glu-Val-Asp) labeled with a fluorescent molecule, 7-Amino4-methylcoumarin (AMC). Caspase 3 cleaves the tetrapeptide between D and AMC, thus releasing the fluorogenic […] AMC. Following the test article exposure to cells in 96-well plates, medium was aspirated from plates and PBS added to each well. Plates were stored at −80° C. to lyse cells and store samples until further analysis. On the day of analysis, plates were removed from freezer and thawed. Caspase buffer with fluorescent substrate was added to each well and incubated at room temperature for 1 hr. AMC release was measured in a spectrofluorometer at an excitation wavelength of 360 nm and an emission wavelength of 460 nm. Values are expressed as relative fluorescent units (RFU).
(§11) Caspase Activity: After sample plates were completely thawed, the caspase substrate buffer mix was added to each plate. Plates were incubated at room temperature for 1hr, shielded from light. Plates were read using a in a spectrofluorometer at an excitation wavelength of 360 nm and an emission wavelength of 460 nm. Values were expressed as relative fluorescent units (RFU).
(§12) The key to the maximal response data can be found below Table 2.
(§13) Dosing solutions were prepared in complete culture medium.

C32 cells = experiment: Caspase 3 activity (apoptosis); assay type: cell-based, human; details: C32, 24 HR
Description: as §10, §11, §12, §13

SK-MEL28 cells = experiment: Caspase 3 activity (apoptosis); assay type: cell-based, human
Description: as §10, §11, §12, §13

NHEM cells = experiment: Caspase 3 activity (apoptosis); assay type: cell-based, human; details: 24 HR
Description: as §10, §11, §12, §13

human hepatocytes = experiment: Caspase 3 activity (apoptosis); assay type: cell-based; details: 24 HR
Description: as §10, §11
The apoptosis data is expressed in Table 2 as a ratio of the magnitude of response versus the exposure concentration that produced the response. […]

SMILES | effect on BNP expression (BNP) | effect on ANP expression (ANP) | less toxic in liver cells than in the cardiomyocytes (TC50 for membrane integrity) (H4IIE cells) | Caspase 3 Activity (Index/Dose): Index (HUVEC) | Caspase 3 Activity (Index/Dose): Dose (HUVEC; controls (μM section)) | Caspase 3 Activity (Index/Dose): Index (C32 cells) | Caspase 3 Activity (Index/Dose): Dose (C32 cells; controls (μM section)) | Caspase 3 Activity (Index/Dose): Index (SK-MEL28 cells; SK-MEL28, 24 HR) | Caspase 3 Activity (Index/Dose): Index (SK-MEL28 cells; SK-MEL28, 24 HR, COMP A (LOW) / controls #2) | Caspase 3 Activity (Index/Dose): Dose (SK-MEL28 cells; SK-MEL28, 24 HR, run #2, controls (μM section)) | Caspase 3 Activity (Index/Dose): Dose (SK-MEL28 cells; SK-MEL28, 24 HR, controls (μM section of table)) | Caspase 3 Activity (Index/Dose): Index (SK-MEL28 cells; SK-MEL28, 72 HR, COMP A (LOW) / controls #2) | Caspase 3 Activity (Index/Dose): Dose (SK-MEL28 cells; SK-MEL28, 72 HR, run #2, controls (μM section)) | Caspase 3 Activity (Index/Dose): Index (NHEM cells) | Caspase 3 Activity (Index/Dose): Dose (NHEM cells; controls (μM section)) | Caspase 3 Activity (Index/Dose): Index (human hepatocytes) | Caspase 3 Activity (Index/Dose): Dose (human hepatocytes; controls (μM section))
COc1cccc2c1C(=O)c1c(O)c3c(c(O)c1C2=O)C[C@@](O)(C(=O)CO)C[C@@H]3O[C@H]1C[C@H](N)[C@H](O)[C@H](C)O1 [ADRIAMYCIN, Adriamycin] | no effect | no effect | approximately 5 fold |  |  |  |  |  |  |  |  |  |  |  |  |  | 
CC[C@@]1(O)C(=O)OCc2c1cc1n(c2=O)Cc2cc3ccccc3nc2-1 [CAMPTOTHECIN, Camptothecin] |  |  |  | 1 (0-200 = 1) | 300 | 4 (600-800 = 4) | 300 | 3 (400-600 = 3) | 3 (400-600 = 3) | 100 | 300 | 3 (400-600 = 3) | 100 | 3 (400-600 = 3) | 300 | 3 (400-600 = 3) | 100
